pIC50: −log10 of the molar value.
Experiments:
[1] = Liver microsomal stability, human; type: in vitro ADME; details: 1 µM compound; 0.5 mg/mL microsomes; NADPH; 30 minutes at 37°C
Outline: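 Compound (1 µM) incubated with liver microsomes (0.5 mg/mL; human, dog, rat, mouse) in 0.1 M phosphate pH 7.4, 5 min preincubation at 37°C, then 30 min with NADPH-generating system. Acetonitrile quench; remaining parent quantified by LC-MS/MS.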

[2] = target: T1, CYP2D6 (Homo sapiens, UniProt P10635); assay: CYP isoenzyme activity inhibition in human liver microsomes, CYP2D6; type: in vitro ADME; details: 10 µM compound; human liver microsomes 0.25 mg/mL; relative to control without compound
T1 construct: human liver microsomes (0.25 mg/mL); from tissue; host or cells: human liver microsomes
T1 sequence (P10635 whole entry): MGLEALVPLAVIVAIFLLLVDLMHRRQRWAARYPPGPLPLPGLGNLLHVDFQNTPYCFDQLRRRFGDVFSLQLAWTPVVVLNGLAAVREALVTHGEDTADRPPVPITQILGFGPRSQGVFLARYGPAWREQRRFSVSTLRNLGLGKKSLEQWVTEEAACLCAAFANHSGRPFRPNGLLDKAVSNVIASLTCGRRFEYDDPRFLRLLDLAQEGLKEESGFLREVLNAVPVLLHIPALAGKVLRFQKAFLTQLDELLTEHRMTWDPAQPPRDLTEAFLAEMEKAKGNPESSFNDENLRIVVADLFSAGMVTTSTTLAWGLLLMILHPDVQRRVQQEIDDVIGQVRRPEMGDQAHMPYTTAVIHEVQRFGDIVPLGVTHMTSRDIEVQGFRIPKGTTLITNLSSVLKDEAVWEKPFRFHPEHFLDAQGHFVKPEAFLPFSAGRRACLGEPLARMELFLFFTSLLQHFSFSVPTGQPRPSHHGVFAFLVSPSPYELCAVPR

[3] = target: T2, CYP2C9 (Homo sapiens, UniProt P11712); assay: CYP isoenzyme activity inhibition in human liver microsomes, CYP2C9; type: in vitro ADME; details: 10 µM compound; human liver microsomes 0.25 mg/mL; relative to control without compound
T2 construct: human liver microsomes (0.25 mg/mL); from tissue; host or cells: human liver microsomes
T2 sequence (P11712 whole entry): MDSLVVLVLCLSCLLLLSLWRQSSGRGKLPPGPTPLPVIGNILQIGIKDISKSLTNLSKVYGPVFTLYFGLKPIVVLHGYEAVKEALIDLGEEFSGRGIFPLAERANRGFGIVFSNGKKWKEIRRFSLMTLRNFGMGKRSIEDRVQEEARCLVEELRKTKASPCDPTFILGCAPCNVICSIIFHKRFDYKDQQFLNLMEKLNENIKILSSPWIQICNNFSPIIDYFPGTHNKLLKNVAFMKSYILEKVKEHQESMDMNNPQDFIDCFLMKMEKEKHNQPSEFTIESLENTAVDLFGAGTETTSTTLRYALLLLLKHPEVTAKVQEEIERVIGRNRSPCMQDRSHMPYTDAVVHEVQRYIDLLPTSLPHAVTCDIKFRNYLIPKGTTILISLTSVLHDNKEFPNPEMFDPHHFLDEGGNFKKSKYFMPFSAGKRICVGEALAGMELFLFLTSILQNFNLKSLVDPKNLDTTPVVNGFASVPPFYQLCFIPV
Outline: (§1)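 Human liver microsomes 0.25 mg/mL, pH 7.4 phosphate, with cocktail substrates phenacetin 50 µM (1A2), diclofenac 10 µM (2C9), S-mephenytoin 100 µM (2C19), midazolam 2.5 µM (3A4); compound at 10 µM. 5 min pre-incubation, then NADPH for 15 min at 37 °C; metabolites by LC-MS/MS MRM, reported as % activity of no-compound control.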

[4] = test system: TDP-43 BiFC cells; assay: Cell viability (stained nuclei count) in TDP-43-BiFC cells; type: cell-based; details: Forskolin-only group = 100%
Outline: (§2)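 Forskolin (30 µM) co-treated with compound (screen 3 and 10 µM; dose-response 0.003–10 µM) for 48 h. BiFC fluorescence normalised to Forskolin-only (100% aggregation) minus untreated; viability from Hoechst-stained nuclei count vs Forskolin-only. IC50 by nonlinear regression.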

[5] = target: T3, TDP-43 protein (Homo sapiens, UniProt Q13148); assay: TDP-43 aggregation inhibition in TDP-43-BiFC cell model (Forskolin-induced); type: cell-based; details: for inhibition at 3 µM: read-out: TDP-43 protein aggregation inhibitory effect: Aggregation inhibitory effect (%) (@3 uM)
T3 construct: BiFC fluorescent-protein fragments (two complementary halves); expressed in transfected cells
T3 sequence (Q13148 whole entry, the tested form may be a part): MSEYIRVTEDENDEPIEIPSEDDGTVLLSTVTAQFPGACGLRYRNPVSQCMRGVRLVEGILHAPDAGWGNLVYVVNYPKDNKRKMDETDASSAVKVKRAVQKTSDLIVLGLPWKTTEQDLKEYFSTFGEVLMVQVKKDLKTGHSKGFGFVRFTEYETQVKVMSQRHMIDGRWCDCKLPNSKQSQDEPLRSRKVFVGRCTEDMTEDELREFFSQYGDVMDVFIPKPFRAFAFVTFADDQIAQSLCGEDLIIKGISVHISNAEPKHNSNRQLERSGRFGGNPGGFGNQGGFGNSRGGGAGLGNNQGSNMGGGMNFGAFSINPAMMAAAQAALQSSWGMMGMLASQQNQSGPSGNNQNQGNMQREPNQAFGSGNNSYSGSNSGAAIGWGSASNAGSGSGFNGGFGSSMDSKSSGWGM
Outline: as §2

[6] = target: T4, CYP2C19 (Homo sapiens, UniProt P33261); assay: CYP isoenzyme activity inhibition in human liver microsomes, CYP2C19; type: in vitro ADME; details: 10 µM compound; human liver microsomes 0.25 mg/mL; relative to control without compound
T4 construct: human liver microsomes (0.25 mg/mL); from tissue; host or cells: human liver microsomes
T4 sequence (P33261 whole entry): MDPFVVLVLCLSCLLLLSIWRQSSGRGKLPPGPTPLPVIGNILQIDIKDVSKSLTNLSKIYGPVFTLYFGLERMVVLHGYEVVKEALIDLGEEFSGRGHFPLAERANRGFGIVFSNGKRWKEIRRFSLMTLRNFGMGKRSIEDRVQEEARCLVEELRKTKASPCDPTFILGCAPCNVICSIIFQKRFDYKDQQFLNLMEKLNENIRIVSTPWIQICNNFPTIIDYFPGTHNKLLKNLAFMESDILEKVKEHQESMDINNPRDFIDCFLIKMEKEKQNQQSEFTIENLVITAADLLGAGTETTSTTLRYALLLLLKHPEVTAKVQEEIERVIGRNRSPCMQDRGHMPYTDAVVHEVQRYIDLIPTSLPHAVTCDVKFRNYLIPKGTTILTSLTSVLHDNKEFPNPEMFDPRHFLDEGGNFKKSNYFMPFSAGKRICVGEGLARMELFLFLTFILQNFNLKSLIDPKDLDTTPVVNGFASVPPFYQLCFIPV
Outline: as §1

SMILES	Human microsomes (% remaining) [1] [% remaining]	CYP2D6 (% activity) [2] [% activity]	CYP2C9 (% activity) [3] [% activity]	Cell viability (%) (@ 3 uM) [4]	pIC50 [5]	inhibition at 3 µM [5] [%]	CYP2C19 (% activity) [6] [% activity]
Cn1c(N2C3CCC2COC3)nc2ccc(NN=C(C#N)C#N)cc21 [Compound 34, (2-(3-oxa-8-azabicyclo[3.2.1]octan-8-yl)-1-methyl-1H-benzo[d]imidazol-6-yl)carbonohydrazonoyl dicyanide]	88.9	92.4	80.8	59.5	8.00	82.4	80.6
Cn1c(N2C3CCC2COC3)nc2cc(NN=C(C#N)C#N)ccc21 [Compound 35, (2-(3-oxa-8-azabicyclo[3.2.1]octan-8-yl)-1-methyl-1H-benzo[d]imidazol-5-yl)carbonohydrazonoyl dicyanide]	94.3	94.9	84.3	67.4	6.72	62.9	82
N#CC(C#N)=NNc1ccc2nc(NC(=O)N3CCOCC3)sc2c1 [Compound 38, (2-(morpholine-4-carboxamido)benzo[d]thiazol-6-yl)carbonohydrazonoyl dicyanide]	87.6	95.7	73.6	111.9	–	49.6	80
CC1CN(C(=O)Nc2nc3ccc(NN=C(C#N)C#N)cc3s2)CC(C)O1 (centres unmarked) [Compound 39, (2-(2,6-dimethylmorpholine-4-carboxamido)benzo[d]thiazol-6-yl)carbonohydrazonoyl dicyanide]	83.8	85.9	42.9	117.7	–	58.7	78.6
N#CC(C#N)=NNc1ccc2nc(NC(=O)N3CC4CCC(C3)O4)sc2c1 [Compound 40, (2-(8-oxa-3-azabicyclo[3.2.1]octane-3-carboxamido)benzo[d]thiazol-6-yl)carbonohydrazonoyl dicyanide]	94.2	88.6	46.9	95.6	–	67.7	65.7
N#CC(C#N)=NNc1ccc2nc(N3CC[C@@H](F)C3)oc2c1 [Compound 41, (R)-(2-(3-fluoropyrrolidin-1-yl)benzo[d]oxazol-6-yl)carbonohydrazonoyl dicyanide]	70.0	86.8	51.2	71.5	–	87.8	86.7

— patent publication EP4737445A1, “NOVEL SATURATED HETEROCYCLE-SUBSTITUTED HETEROARYL-CARBONOHYDRAZONOYL DICYANIDE COMPOUND AND USE THEREOF” (Korea Institute of Science and Technology, priority 2023, dated 2025)
